# Results as given in publication PMC4207131, “Cyclic Adenosine 5′-Diphosphate Ribose Analogs without a “Southern” Ribose Inhibit ADP-ribosyl Cyclase–Hydrolase CD38” (Journal of Medicinal Chemistry, 2014).
# Entries after “also recorded” stand apart in the source; their conditions may differ. Like-named read-outs stand apart in the source and are kept apart here.
# Key:
# [1] = biological target: T1, CD38 catalytic domain (shCD38) (Homo sapiens, UniProt P28907, N100D/N164A/N209D/N219D); set-up: incubating 1 μM cADPR with 1 μg/mL CD38 catalytic domain for 10 min; made in house; conditions: equivalent 8-substituted cIDPRs; read-out: IC50, inhibition of shCD38-mediated cADPR hydrolysis; cited from earlier work
# T1 sequence (P28907 43-300 N100D/N164A/N209D/N219D limits assumed): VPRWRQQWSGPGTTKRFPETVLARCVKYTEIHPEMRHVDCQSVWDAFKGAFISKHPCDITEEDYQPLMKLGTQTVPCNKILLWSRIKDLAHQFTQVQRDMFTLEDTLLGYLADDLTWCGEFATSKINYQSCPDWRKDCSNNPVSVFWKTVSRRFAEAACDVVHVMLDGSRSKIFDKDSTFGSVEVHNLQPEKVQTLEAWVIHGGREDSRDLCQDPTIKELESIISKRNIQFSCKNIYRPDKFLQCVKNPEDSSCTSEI
# [2] = biological target: T1, CD38 catalytic domain (shCD38); test: Inhibition of shCD38-mediated cADPR hydrolysis (fluorimetric cycling assay); type: biochemical; set-up: incubating 1 μM cADPR with 1 μg/mL CD38 catalytic domain for 10 min; made in house; conditions: 1 μM cADPR, 1 μg/mL CD38 catalytic domain, 10 min, 20–24 °C, 25 mM sodium acetate pH 4.5
# Method: The inhibition of cADPR hydrolysis by various concentrations of analog (0–1 mM) was determined by incubating 1 μM cADPR with 1 μg/mL CD38 catalytic domain for 10 min at 20–24 °C in 25 mM sodium acetate, pH 4.5. The reaction was stopped by the addition of 150 mM HCl. The precipitated protein was filtered, and the pH was neutralized with Tris base. After the mixture was diluted 20-fold, the concentration of the unhydrolyzed cADPR present in the diluted reaction mixture was assayed by the fluorimetric cycling assay as described previously.[52]
# [3] = biological target: T1, CD38 catalytic domain (shCD38); test: RP-HPLC study of ligand hydrolysis by shCD38; conditions: for hydrolysis by shCD38 at enzyme assay concentration: shCD38 1 μg/mL; for hydrolysis by shCD38 at enzyme assay concentration / hydrolysis by shCD38 at high concentration / time to 50% hydrolysis: ligand 1 mM; for hydrolysis by shCD38 at high concentration / time to 50% hydrolysis: shCD38 4 mg/mL; for time to 50% hydrolysis: Tris-HCl pH 8, room temperature
# Method: Incubation of 7 (1 mM final concentration) with 4 mg/mL shCD38 was monitored using RP-HPLC.
# Therefore, further HPLC experiments were carried out using shCD38 concentrations of 1 μg/mL and either cIDPR or 7 to observe the effect of CD38 under conditions that reflect the enzyme assay (Supporting Information, Figure S3).
# The solution containing the CD38 catalytic domain was adjusted to the desired concentration using Tris-HCl buffer (20 mM, pH 8), and 50 μL therefrom was added to the inhibitor (0.05 μmol) in an Eppendorf tube at room temperature. At a given time point, a sample of 5 μL was removed and diluted with 95 μL of Milli-Q water. Then 10 μL of this sample was injected directly into the analytical HPLC system (see section General in Experimental Section), eluting at 1 mL/min with an isocratic ion-pair buffer: 0.17% (m/v) cetrimide and 45% (v/v) phosphate buffer (pH 6.4) in MeOH.
# [4] = cited from earlier work
# [5] = cited from earlier work; remark: listed apart in the source
# [6] = test system: Ca^2+-release in permeabilized T-cells; set-up: method as in PMID 12932045, PMID 19492987; conditions: cited from earlier work
smiles,measurement,setting,value
Nc1nc2c(=O)n3cnc2n1C1OC(COP(=O)(O)OP(=O)(O)OCC2OC3C(O)C2O)C(O)C1O (stereo not drawn) [8-NH2-cIDPR],IC50,[1],56 µM
"Nc1nc2c(=O)n3cnc2n1CCCCOP(=O)(O)OP(=O)(O)OC[C@H]1O[C@@H]3[C@H](O)[C@@H]1O [compound 7, N1-Cyclic-8-aminohypoxanthine-N9-hydroxybutyl Diphosphate Ribose]",IC50,[2],3.3 µM
same,change of the ligand peak in the control without shCD38,[3]; parallel control containing no shCD38,no change in the original peak
same,hydrolysis by shCD38 at enzyme assay concentration,[3],not hydrolyzed
same,hydrolysis by shCD38 at high concentration,[3],faster hydrolysis
same,time to 50% hydrolysis,[3],105 min
"O=c1c2ncn3c2ncn1[C@@H]1O[C@H](COP(=O)(O)OP(=O)(O)OC[C@H]2O[C@@H]3[C@H](O)[C@@H]2O)[C@@H](O)[C@H]1O [compound 2, N1-cyclic inosine 5′-diphosphate ribose]",chemical and biological stability,[4],Chemically and biologically stable
same,ionization over the pH range,[5],no ionization between 6.8 and 10.9
same,Ca2+-release agonism,[6]; permeabilized T-cells,agonist for Ca^2+-release with almost equivalent potency to cADPR
same,hydrolysis by shCD38 at enzyme assay concentration,[3]; listed as cIDPR,neither cIDPR (2) or 8-NH2-N9-butyl-; also recorded: not hydrolyzed
same,hydrolysis by shCD38 at high concentration,[3],hydrolyzed by the enzyme at 4 mg/mL but at a slower rate than 7
same,time to 50% hydrolysis,[3],420 min
"O=c1c2nc(Br)n3c2ncn1[C@@H]1O[C@H](COP(=O)(O)OP(=O)(O)OCCCC3)[C@@H](O)[C@H]1O [compound 5, N1-Cyclic-8-bromohypoxanthine-N9-hydroxybutyl Diphosphate Ribose]",IC50,[2],27 µM
same,hydrolysis by shCD38 at high concentration,[3],hydrolyzed by the enzyme at 4 mg/mL but at a slower rate than 7
"[N-]=[N+]=Nc1nc2c(=O)n3cnc2n1CCCCOP(=O)(O)OP(=O)(O)OC[C@H]1O[C@@H]3[C@H](O)[C@@H]1O [compound 6, N1-Cyclic-8-azidohypoxanthine-N9-hydroxybutyl Diphosphate Ribose]",IC50,[2],6.4 µM
"N=c1c2ncn3c2ncn1[C@@H]1C[C@H](COP(=O)(O)OP(=O)(O)OC[C@H]2O[C@@H]3[C@H](O)[C@@H]2O)[C@@H](O)[C@H]1O [cADPcR, cyclic adenosine 5′-diphosphate carbocyclic ribose]",pKa of the N6-amino dissociation,[5],8.9
O=c1c2nc(Br)n3c2ncn1[C@@H]1O[C@H](COP(=O)(O)OP(=O)(O)OC[C@H]2O[C@@H]3[C@H](O)[C@@H]2O)[C@@H](O)[C@H]1O [compound 3],chemical and biological stability,[4],Chemically and biologically stable
same,"Ca2+-release agonism, membrane permeant",[6],stable membrane permeant agonist of Ca^2+ release
"O=c1c2ncn3c2ncn1[C@@H]1O[C@H](COP(=O)(O)OP(=O)(O)OCCCC3)[C@@H](O)[C@H]1O [compound 4, N1-Cyclic Hypoxanthine-N9-hydroxybutyl Diphosphate Ribose]",hydrolysis by shCD38 at high concentration,[3],hydrolyzed by the enzyme at 4 mg/mL but at a slower rate than 7
"N=c1c2ncn3c2ncn1[C@@H]1O[C@H](COP(=O)(O)OP(=O)(O)OC[C@H]2O[C@@H]3[C@H](O)[C@@H]2O)[C@@H](O)[C@H]1O [cADPR, Cyclic adenosine 5′-diphosphate ribose]",hydrolysis at the N1 link,[4]; neutral aqueous solution and physiological conditions,hydrolyzed at the N1 link in both neutral aqueous solution and under physiological conditions
same,pKa of the N6-amino form,[5],8.3
